Measurements: the supplement of paper PMC7017272
± gives the standard deviation of the averaged measurements.

Legend:
Conditions in all cases: treatment time: 3 days
UT-SCC-81 [1] = test: maximal % inhibition of viability relative to DMSO; higher = stronger effect
Protocol: (§1)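 HNSCC cell lines (500 cells/well, 384-well) were cultured on plastic, on top of (2D) or embedded (3D) in Matrigel or human leiomyoma matrix Myogel (500 ug/mL; Myogel 3D mixed with rat collagen I). Cells were treated for 3 days with 5 ten-fold concentrations of each drug, and viability was read by CellTiter-Glo. Viability was normalised to DMSO and benzethonium chloride controls and fitted with the FIMM DSRT pipeline to give IC50 (nM), maximal % inhibition and DSS. Suffixes _1/_2/_3 are replicates. Only inhibition-mode (IC50) fits are kept.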

UT-SCC-8 = test: as above
Protocol: as §1

UT-SCC-24B [2] = test: as above
Protocol: as §1

UT-SCC-14 [3] = test: as above
Protocol: as §1

UT-SCC-40 [4] = test: as above
Protocol: as §1

UT-SCC-42B [5] = test: as above
Protocol: as §1

UT-SCC-28 = test: as above
Protocol: as §1

UT-SCC-42A [6] = test: as above
Protocol: as §1

UT-SCC-24A = test: relative IC50 (midpoint of the fitted curve; maximal inhibition may be below 50%); higher = less potent
Protocol: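 HNSCC cell lines (500 cells/well, 384-well) were cultured on plastic, on top of (2D) or embedded (3D) in Matrigel or human leiomyoma matrix Myogel (500 ug/mL; Myogel 3D mixed with rat collagen I). Cells were treated for 3 days with 5 ten-fold concentrations of each drug, and viability was read by CellTiter-Glo. Viability was normalised to DMSO (0% inhibition) and 100 uM benzethonium chloride (100% inhibition) controls and fitted with the FIMM DSRT pipeline to give IC50 (nM), maximal % inhibition and the drug sensitivity score (DSS). Suffixes _1/_2/_3 on drug names are replicates.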

UT-SCC-81 [7] = test: relative IC50 (midpoint of the fitted curve; maximal inhibition may be below 50%); higher = less potent
Procedure, shortened: (§2)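 Viability of HPV-negative HNSCC cell lines was measured by CellTiter-Glo 2.0 luminescence. Cells were seeded at 500 cells/well in 384-well plates on plastic, on Matrigel- or Myogel-coated wells (500 µg/mL), or embedded in Matrigel or Myogel plus rat collagen I, then given compounds at five 10-fold concentrations for 3 days, with signals normalised to vehicle (0.1% DMSO) and cell-killing control wells. Fitting of percent-inhibition dose–response curves in the FIMM pipeline yielded IC50, maximal inhibition and drug sensitivity score.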

UT-SCC-24B [8] = test: as above
Procedure, shortened: as §2

UT-SCC-44 = test: as above
Procedure, shortened: as §2

UT-SCC-73 = test: as above
Procedure, shortened: as §2

UT-SCC-14 [9] = test: as above
Procedure, shortened: as §2

UT-SCC-106A = test: as above
Procedure, shortened: as §2

UT-SCC-40 [10] = test: as above
Procedure, shortened: as §2

UT-SCC-42B [11] = test: as above
Procedure, shortened: as §2

UT-SCC-42A [12] = test: as above
Procedure, shortened: as §2

[13] = culture condition: embedded in Matrigel
[14] = culture condition: embedded in Myogel + collagen I
[15] = culture condition: on top of Matrigel
[16] = culture condition: on top of Myogel
[17] = culture condition: plastic 2D (no matrix)

In the case of `Cn1c(=O)c(F)c(Nc2ccc(I)cc2F)c2c(=O)n(C[C@@H](O)CO)cnc21` [TAK-733], the “maximal % inhibition of viability” value (UT-SCC-81 [1]; [13]) is reported as 87.1 ± 4%, the “maximal % inhibition of viability” value (UT-SCC-81 [1]; [14]) is reported as 25 ± 12% and the “maximal % inhibition of viability” value (UT-SCC-81 [1]; [15]) is reported as 71.5 ± 6%. The “maximal % inhibition of viability” value (UT-SCC-81 [1]; [16]) was 24.3 ± 5.5%, the “maximal % inhibition of viability” value (UT-SCC-81 [1]; [17]) was 36.4 ± 2.3% and the “maximal % inhibition of viability” value (UT-SCC-8; [13]) was 74.4 ± 12%. For the same compound, the “maximal % inhibition of viability” value (UT-SCC-8; [14]) was 35.5 ± 26%, the “maximal % inhibition of viability” value (UT-SCC-8; [15]) was 65.3 ± 12% and the “maximal % inhibition of viability” value (UT-SCC-8; [16]) was 46.8 ± 21%. The “maximal % inhibition of viability” value (UT-SCC-8; [17]) was 56.1 ± 17%, the “maximal % inhibition of viability” value (UT-SCC-24B [2]; [13]) was 67.3 ± 1.5% and the “maximal % inhibition of viability” value (UT-SCC-24B [2]; [14]) was 67.2 ± 1.2%. For the same compound, the “maximal % inhibition of viability” value (UT-SCC-24B [2]; [15]) was 64.3 ± 1.3%, the “maximal % inhibition of viability” value (UT-SCC-24B [2]; [16]) was 55.5 ± 2.2% and the “maximal % inhibition of viability” value (UT-SCC-24B [2]; [17]) was 79.9 ± 1.1%. The “maximal % inhibition of viability” value (UT-SCC-14 [3]; [13]) was 42.3 ± 17%, the “maximal % inhibition of viability” value (UT-SCC-14 [3]; [14]) was 31.8 ± 2.2% and the “maximal % inhibition of viability” value (UT-SCC-14 [3]; [15]) was 33.3 ± 3.4%. For the same compound, the “maximal % inhibition of viability” value (UT-SCC-14 [3]; [16]) was 28.6 ± 2.2%, the “maximal % inhibition of viability” value (UT-SCC-14 [3]; [17]) was 20.4 ± 13% and the “maximal % inhibition of viability” value (UT-SCC-40 [4]; [13]) was 78.2 ± 1.2%. For the same compound, the “maximal % inhibition of viability” value (UT-SCC-40 [4]; [14]) was 64 ± 2.1%, the “maximal % inhibition of viability” value (UT-SCC-40 [4]; [15]) was 72.9 ± 2.1% and the “maximal % inhibition of viability” value (UT-SCC-40 [4]; [16]) was 51 ± 0.89%. For the same compound, the “maximal % inhibition of viability” value (UT-SCC-40 [4]; [17]) was 53.7 ± 0.74%, the “maximal % inhibition of viability” value (UT-SCC-42B [5]; [13]) was 71.3 ± 7.9% and the “maximal % inhibition of viability” value (UT-SCC-42B [5]; [15]) was 54 ± 1.3%. For the same compound, the “maximal % inhibition of viability” value (UT-SCC-42B [5]; [16]) was 30.2 ± 3.9%, the “maximal % inhibition of viability” value (UT-SCC-42B [5]; [17]) was 38.4 ± 5.8% and the “maximal % inhibition of viability” value (UT-SCC-28; [13]) was 36.6 ± 7.2%. The “maximal % inhibition of viability” value (UT-SCC-28; [14]) was 22.7 ± 21%, the “maximal % inhibition of viability” value (UT-SCC-28; [15]) was 41.5 ± 1.7% and the “maximal % inhibition of viability” value (UT-SCC-28; [17]) was 25.6 ± 1%. For the same compound, the “maximal % inhibition of viability” value (UT-SCC-42A [6]; [13]) was 57.9 ± 2.6%, the “maximal % inhibition of viability” value (UT-SCC-42A [6]; [14]) was 41.5 ± 27% and the “maximal % inhibition of viability” value (UT-SCC-42A [6]; [15]) was 59.9 ± 5.2%. The “maximal % inhibition of viability” value (UT-SCC-42A [6]; [16]) was 42.1 ± 5.3%, the “maximal % inhibition of viability” value (UT-SCC-42A [6]; [17]) was 52.7 ± 3.6% and the “relative IC50” value (UT-SCC-24A; [15]) was 1.23 nM. For the same compound, the “relative IC50” value (UT-SCC-24A; [17]) was 1.21 nM, the “relative IC50” value (UT-SCC-81 [7]; [15]) was 5.89 nM and the “relative IC50” value (UT-SCC-81 [7]; [17]) was 151 nM. The “relative IC50” value (UT-SCC-24B [8]; [14]) was 62.7 nM, the “relative IC50” value (UT-SCC-24B [8]; [15]) was 39.5 nM and the “relative IC50” value (UT-SCC-44; [13]) was 3.37 nM. The “relative IC50” value (UT-SCC-44; [14]) was 108 nM, the “relative IC50” value (UT-SCC-44; [17]) was 7.56 nM and the “relative IC50” value (UT-SCC-73; [13]) was 2.4 nM. For the same compound, the “relative IC50” value (UT-SCC-73; [14]) was 3.82 nM, the “relative IC50” value (UT-SCC-73; [15]) was 3.23 nM and the “relative IC50” value (UT-SCC-73; [16]) was 9.54 nM. For the same compound, the “relative IC50” value (UT-SCC-73; [17]) was 5.35 nM, the “relative IC50” value (UT-SCC-14 [9]; [14]) was 9.53 nM and the “relative IC50” value (UT-SCC-14 [9]; [15]) was 14.3 nM. For the same compound, the “relative IC50” value (UT-SCC-14 [9]; [16]) was 16.1 nM, the “relative IC50” value (UT-SCC-106A; [13]) was 2.16 nM and the “relative IC50” value (UT-SCC-106A; [15]) was 2.3 nM. The “relative IC50” value (UT-SCC-106A; [17]) was 2.3 nM, the “relative IC50” value (UT-SCC-40 [10]; [13]) was 2.68 nM and the “relative IC50” value (UT-SCC-40 [10]; [14]) was 6.76 nM. For the same compound, the “relative IC50” value (UT-SCC-40 [10]; [15]) was 4.29 nM, the “relative IC50” value (UT-SCC-40 [10]; [16]) was 13.8 nM and the “relative IC50” value (UT-SCC-40 [10]; [17]) was 10.6 nM. For the same compound, the “relative IC50” value (UT-SCC-42B [11]; [13]) was 1.54 nM, the “relative IC50” value (UT-SCC-42B [11]; [16]) was 80.8 nM and the “relative IC50” value (UT-SCC-42A [12]; [13]) was 4.26 nM. The “relative IC50” value (UT-SCC-42A [12]; [14]) was 11.3 nM, the “relative IC50” value (UT-SCC-42A [12]; [15]) was 4.67 nM and the “relative IC50” value (UT-SCC-42A [12]; [17]) was 9.23 nM.
